According to the supplement of paper PMC10307832:

Tests used:
Assay in all cases: relative viability (nuclei count vs DMSO), 5 days (fraction); higher = more cells survive
LOU-NH91 = tested on: LOU-NH91
In short: (§1)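 Values are medians from duplicate plates. Each reflects relative viability, defined as the nuclei count of treated wells over that of vehicle wells. Lung cancer cell lines in 1536-well plates were pin-tool dosed one day after seeding with one drug alone or with a fixed anchor-drug dose plus five library-drug doses (not always all listed) in √10 steps, then fixed, stained and imaged at 4× after 5 days.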

NCI-H2023 = tested on: NCI-H2023
In short: as §1

NCI-H1437 = tested on: NCI-H1437
In short: as §1

NCI-H2085 = tested on: NCI-H2085
In short: as §1

NCI-H647 = tested on: NCI-H647
In short: as §1

NCI-H1648 = tested on: NCI-H1648
In short: as §1

HCC-827 = tested on: HCC-827
In short: as §1

LU99A = tested on: LU99A
In short: as §1

EPLC-272H = tested on: EPLC-272H
In short: as §1

SW 900 = tested on: SW 900
In short: as §1

NCI-H1734 = tested on: NCI-H1734
In short: as §1

EMC-BAC-2 = tested on: EMC-BAC-2
In short: as §1

LK-2 = tested on: LK-2
In short: as §1

COR-L 105 = tested on: COR-L 105
In short: as §1

SK-LU-1 = tested on: SK-LU-1
In short: as §1

NCI-H358 = tested on: NCI-H358
In short: as §1

NCI-H522 = tested on: NCI-H522
In short: as §1

EKVX = tested on: EKVX
In short: as §1

NCI-H650 = tested on: NCI-H650
In short: as §1

UMC-11 = tested on: UMC-11
In short: as §1

BEN = tested on: BEN
In short: as §1

HCC-78 = tested on: HCC-78
In short: as §1

NCI-H1650 = tested on: NCI-H1650
In short: as §1

C=C1C(=O)O[C@@H](CCCCCCCC)[C@@H]1C(=O)O [C-75] + O=C(CCCCCCC(=O)Nc1ccccc1)NO [Vorinostat] (partner 1 µM) was tested. Which relative viability (LOU-NH91; first compound 0.08 µM) did it give?
The relative viability was 0.939.

What about the relative viability (LOU-NH91; first compound 0.253 µM) of the same compound?
Its relative viability is 0.939.

What about the relative viability (LOU-NH91; first compound 0.8 µM) of the same compound?
The relative viability was 0.828.

And the relative viability (LOU-NH91; first compound 8 µM)?
Its relative viability is 0.898.

What about the relative viability (NCI-H2023; first compound 0.08 µM) of the same compound?
The relative viability was 0.653.

What about the relative viability (NCI-H2023; first compound 0.253 µM) of the same compound?
Its relative viability is 0.944.

And the relative viability (NCI-H2023; first compound 0.8 µM)?
Its relative viability is 0.604.

And the relative viability (NCI-H2023; first compound 2.53 µM)?
Its relative viability is 0.6.

And the relative viability (NCI-H2023; first compound 8 µM)?
The relative viability was 0.37.

What about the relative viability (NCI-H1437; first compound 0.08 µM) of the same compound?
Its relative viability is 0.866.

And the relative viability (NCI-H1437; first compound 0.253 µM)?
Its relative viability is 0.98.

What about the relative viability (NCI-H1437; first compound 0.8 µM) of the same compound?
The relative viability was 0.733.

What about the relative viability (NCI-H1437; first compound 8 µM) of the same compound?
The relative viability was 0.717.

And the relative viability (NCI-H2085; first compound 0.08 µM)?
The relative viability was 0.801.

What about the relative viability (NCI-H2085; first compound 0.253 µM) of the same compound?
The relative viability was 0.749.

What about the relative viability (NCI-H2085; first compound 0.8 µM) of the same compound?
Its relative viability is 0.752.

And the relative viability (NCI-H2085; first compound 2.53 µM)?
The relative viability was 0.664.

What about the relative viability (NCI-H2085; first compound 8 µM) of the same compound?
Its relative viability is 0.738.

And the relative viability (NCI-H647; first compound 0.08 µM)?
The relative viability was 0.47.

And the relative viability (NCI-H647; first compound 0.253 µM)?
The relative viability was 0.873.

And the relative viability (NCI-H647; first compound 0.8 µM)?
Its relative viability is 0.638.

What about the relative viability (NCI-H647; first compound 2.53 µM) of the same compound?
The relative viability was 0.464.

And the relative viability (NCI-H647; first compound 8 µM)?
The relative viability was 0.486.

What about the relative viability (NCI-H1648; first compound 0.08 µM) of the same compound?
Its relative viability is 0.571.

What about the relative viability (NCI-H1648; first compound 0.253 µM) of the same compound?
Its relative viability is 1.1.

And the relative viability (NCI-H1648; first compound 0.8 µM)?
The relative viability was 0.283.

What about the relative viability (NCI-H1648; first compound 8 µM) of the same compound?
Its relative viability is 0.216.

And the relative viability (HCC-827; first compound 0.253 µM)?
The relative viability was 0.662.

What about the relative viability (HCC-827; first compound 0.8 µM) of the same compound?
The relative viability was 0.721.

What about the relative viability (HCC-827; first compound 8 µM) of the same compound?
Its relative viability is 0.88.

And the relative viability (LU99A; first compound 0.08 µM)?
The relative viability was 0.476.

And the relative viability (LU99A; first compound 0.253 µM)?
The relative viability was 0.549.

What about the relative viability (LU99A; first compound 0.8 µM) of the same compound?
The relative viability was 0.413.

And the relative viability (LU99A; first compound 2.53 µM)?
Its relative viability is 0.552.

And the relative viability (LU99A; first compound 8 µM)?
Its relative viability is 0.495.

What about the relative viability (EPLC-272H; first compound 0.08 µM) of the same compound?
The relative viability was 0.477.

What about the relative viability (EPLC-272H; first compound 0.253 µM) of the same compound?
The relative viability was 0.545.

And the relative viability (EPLC-272H; first compound 0.8 µM)?
Its relative viability is 0.655.

What about the relative viability (EPLC-272H; first compound 2.53 µM) of the same compound?
The relative viability was 0.41.

What about the relative viability (EPLC-272H; first compound 8 µM) of the same compound?
Its relative viability is 0.391.

And the relative viability (SW 900; first compound 0.08 µM)?
Its relative viability is 0.669.

What about the relative viability (SW 900; first compound 0.253 µM) of the same compound?
Its relative viability is 0.824.

And the relative viability (SW 900; first compound 0.8 µM)?
The relative viability was 0.47.

What about the relative viability (SW 900; first compound 2.53 µM) of the same compound?
Its relative viability is 0.395.

What about the relative viability (SW 900; first compound 8 µM) of the same compound?
Its relative viability is 0.49.

What about the relative viability (NCI-H1734; first compound 0.08 µM) of the same compound?
Its relative viability is 0.834.

What about the relative viability (NCI-H1734; first compound 0.253 µM) of the same compound?
Its relative viability is 0.877.

What about the relative viability (NCI-H1734; first compound 0.8 µM) of the same compound?
Its relative viability is 0.766.

And the relative viability (NCI-H1734; first compound 2.53 µM)?
Its relative viability is 0.538.

What about the relative viability (NCI-H1734; first compound 8 µM) of the same compound?
Its relative viability is 0.693.

What about the relative viability (EMC-BAC-2; first compound 0.08 µM) of the same compound?
The relative viability was 0.462.

And the relative viability (EMC-BAC-2; first compound 0.253 µM)?
Its relative viability is 0.407.

And the relative viability (EMC-BAC-2; first compound 0.8 µM)?
The relative viability was 0.276.

What about the relative viability (EMC-BAC-2; first compound 2.53 µM) of the same compound?
The relative viability was 0.355.

What about the relative viability (EMC-BAC-2; first compound 8 µM) of the same compound?
Its relative viability is 0.378.

And the relative viability (LK-2; first compound 0.08 µM)?
Its relative viability is 0.387.

And the relative viability (LK-2; first compound 0.253 µM)?
Its relative viability is 0.315.

What about the relative viability (LK-2; first compound 0.8 µM) of the same compound?
Its relative viability is 0.319.

And the relative viability (LK-2; first compound 2.53 µM)?
Its relative viability is 0.286.

And the relative viability (LK-2; first compound 8 µM)?
The relative viability was 0.324.

What about the relative viability (COR-L 105; first compound 0.08 µM) of the same compound?
Its relative viability is 0.906.

What about the relative viability (COR-L 105; first compound 0.253 µM) of the same compound?
Its relative viability is 0.826.

And the relative viability (COR-L 105; first compound 0.8 µM)?
The relative viability was 0.895.

What about the relative viability (COR-L 105; first compound 2.53 µM) of the same compound?
Its relative viability is 0.859.

And the relative viability (COR-L 105; first compound 8 µM)?
Its relative viability is 0.813.

And the relative viability (SK-LU-1; first compound 0.08 µM)?
The relative viability was 0.782.

And the relative viability (SK-LU-1; first compound 0.253 µM)?
Its relative viability is 0.724.

And the relative viability (SK-LU-1; first compound 0.8 µM)?
The relative viability was 0.698.

What about the relative viability (SK-LU-1; first compound 2.53 µM) of the same compound?
Its relative viability is 0.752.

What about the relative viability (SK-LU-1; first compound 8 µM) of the same compound?
The relative viability was 0.59.

What about the relative viability (NCI-H358; first compound 0.08 µM) of the same compound?
Its relative viability is 0.704.

What about the relative viability (NCI-H358; first compound 0.253 µM) of the same compound?
Its relative viability is 0.789.

And the relative viability (NCI-H358; first compound 0.8 µM)?
The relative viability was 0.689.

What about the relative viability (NCI-H358; first compound 8 µM) of the same compound?
Its relative viability is 0.608.

And the relative viability (NCI-H522; first compound 0.08 µM)?
The relative viability was 0.912.

What about the relative viability (NCI-H522; first compound 0.253 µM) of the same compound?
Its relative viability is 0.811.

And the relative viability (NCI-H522; first compound 0.8 µM)?
Its relative viability is 0.905.

And the relative viability (NCI-H522; first compound 2.53 µM)?
The relative viability was 0.655.

What about the relative viability (NCI-H522; first compound 8 µM) of the same compound?
Its relative viability is 0.868.

And the relative viability (EKVX; first compound 0.08 µM)?
The relative viability was 0.725.

And the relative viability (EKVX; first compound 0.253 µM)?
The relative viability was 0.827.

And the relative viability (EKVX; first compound 0.8 µM)?
Its relative viability is 0.654.

And the relative viability (EKVX; first compound 8 µM)?
Its relative viability is 0.728.

What about the relative viability (NCI-H650; first compound 0.08 µM) of the same compound?
Its relative viability is 0.413.

And the relative viability (NCI-H650; first compound 0.253 µM)?
The relative viability was 0.388.

And the relative viability (NCI-H650; first compound 0.8 µM)?
Its relative viability is 0.401.

And the relative viability (NCI-H650; first compound 2.53 µM)?
The relative viability was 0.351.

And the relative viability (NCI-H650; first compound 8 µM)?
Its relative viability is 0.416.

What about the relative viability (UMC-11; first compound 0.08 µM) of the same compound?
Its relative viability is 0.38.

And the relative viability (UMC-11; first compound 0.253 µM)?
Its relative viability is 0.497.

And the relative viability (UMC-11; first compound 0.8 µM)?
Its relative viability is 0.343.

What about the relative viability (UMC-11; first compound 2.53 µM) of the same compound?
The relative viability was 0.257.

What about the relative viability (UMC-11; first compound 8 µM) of the same compound?
Its relative viability is 0.294.

And the relative viability (BEN; first compound 0.08 µM)?
The relative viability was 0.642.

What about the relative viability (BEN; first compound 0.253 µM) of the same compound?
The relative viability was 0.574.

And the relative viability (BEN; first compound 0.8 µM)?
The relative viability was 0.524.

What about the relative viability (BEN; first compound 2.53 µM) of the same compound?
Its relative viability is 0.647.

And the relative viability (BEN; first compound 8 µM)?
Its relative viability is 0.606.

And the relative viability (HCC-78; first compound 0.08 µM)?
Its relative viability is 0.372.

And the relative viability (HCC-78; first compound 0.253 µM)?
The relative viability was 0.668.

And the relative viability (HCC-78; first compound 0.8 µM)?
Its relative viability is 0.373.

And the relative viability (HCC-78; first compound 8 µM)?
Its relative viability is 0.372.

And the relative viability (NCI-H1650; first compound 0.08 µM)?
Its relative viability is 0.597.

What about the relative viability (NCI-H1650; first compound 0.253 µM) of the same compound?
Its relative viability is 0.751.

And the relative viability (NCI-H1650; first compound 0.8 µM)?
The relative viability was 0.665.

And the relative viability (NCI-H1650; first compound 8 µM)?
The relative viability was 0.463.
